In one assay the target is CDK6/D3 (Homo sapiens, UniProt Q00534). As to the kind of experiment: ADP Glo Kinase assay CDK6/D3. It is filed as biochemical. The settings on record: CDK6D3; compound at 10 μM; read-out: residual activity (%) at 10 μM CDK6D3. The protocol:
Eurofins Pharma Discovery or Reaction Biology Corporation Kinase Profiler services were used to measure inhibition of CDKs and other kinases by radiometric assay. Inhibition of CDK4/D1, CDK6/D3 and CDK9/T1 were also determined in-house using ADP Glo Kinase assays (Promega Corporation, Madison, USA). Briefly, the kinase reaction for CDK4/D1 and CDK6/D3 was performed with kinase reaction buffer ([…] Tris base pH 7.5, 20 mM MgCl2, 0.4 mM DTT), 0.1 mg/ml BSA and RB-CTF substrate (retinoblastoma protein 1 C-terminal fraction). For CDK9/CyclinT1, the kinase reaction was performed with standard assay buffer and Kinase Dilution Buffer and RBER-IRStide substrate. Serial dilutions of 1:3 were prepared for test compounds for 10 concentrations (from 10 μM to 0.5 nM). The kinase reactions were started by addition of ATP, incubated for 40 min at 37° C. and then stopped by adding 10 μL of ADP Glo reagent. After incubation at room temperature in the dark for 40 min, 20 μL of kinase detection reagent was added per well and incubated for 40 min. Luminescence was measured using an EnVision Multilabel plate reader (PerkinElmer, Buckinghamshire, UK). Positive and negative controls were performed in the presence and absence of CDK kinases, respectively. Half-maximal inhibition (IC50) values were calculated using a 4-parameter logistic non-linear regression model with Graphpad prism (Version 6.0). Apparent inhibition constants (Ki) values were calculated from Km (ATP) and IC50 values for the respective kinases.
(In general: ADP-Glo turns the ADP formed in a reaction into a luminescent signal.)

The next assay has as its target CDK9/T1 (Homo sapiens, UniProt P50750). As to the kind of experiment: ADP Glo Kinase assay CDK9/T1. It is filed as biochemical. Particulars: CDK9T1; read-out: CDK inhibition, Ki (μM) CDK9T1. An outline of the steps: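 CDK4/D1 and CDK6/D3 were run in […] Tris pH 7.5, 20 mM MgCl2, 0.4 mM DTT, 0.1 mg/ml BSA with RB-CTF substrate; CDK9/T1 used RBER-IRStide. ATP-started reactions ran 40 min at 37° C, with ADP Glo luminescence read-out. IC50 came from 4-parameter fits; Ki from Km (ATP) and IC50.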

In assay [1] the target is T1, CDKs and other kinases (Homo sapiens, UniProt P50613).
T1 construct: other: CDK7H; residual activity (%) at 10 μM CDK7H; compound at 10 μM
Kind of assay: Radiometric kinase assay (Eurofins Pharma Discovery or Reaction Biology Corporation Kinase Profiler). It is filed as biochemical. The settings on record: CDK7H; for Ki: read-out: CDK inhibition, Ki (μM) CDK7H; for remaining activity at 10 µM: compound at 10 μM, read-out: residual activity (%) at 10 μM CDK7H. An outline of the steps:
(§1)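 Other CDKs and further kinases were profiled externally by radiometric assay. In-house ADP Glo assays covered CDK4/D1 and CDK6/D3 (RB-CTF substrate, pH 7.5 Tris buffer with MgCl2, DTT, BSA) and CDK9/T1 (RBER-IRStide substrate), 40 min at 37° C.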

Assay [2] addresses T2, CDKs and other kinases (Homo sapiens, UniProt P24941).
T2 construct: other: CDK2A; residual activity (%) at 10 μM CDK2A; compound at 10 μM
The assay is described as above. The settings on record: CDK2A; for Ki: read-out: CDK inhibition, Ki (μM) CDK2A; for remaining activity at 10 µM: compound at 10 μM, read-out: residual activity (%) at 10 μM CDK2A. It is filed as biochemical. Put shortly: as §1

Assay [3] has as its target T3, CDKs and other kinases (Homo sapiens, UniProt P06493).
T3 construct: other: CDK1B; residual activity (%) at 10 μM CDK1B; compound at 10 μM
The description is as above. It is filed as biochemical. Particulars: CDK1B; for Ki: read-out: CDK inhibition, Ki (μM) CDK1B; for remaining activity at 10 µM: compound at 10 μM, read-out: residual activity (%) at 10 μM CDK1B. Put shortly: as §1

A further assay concerns the target CDK4/D1 (Homo sapiens, UniProt P11802). As to the kind of experiment: ADP Glo Kinase assay CDK4/D1. It is filed as biochemical. Particulars: CDK4D1; compound at 10 μM; read-out: residual activity (%) at 10 μM CDK4D1. Put shortly:
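In-house ADP-Glo assay: CDK4/D1 or CDK6/D3 with RB-CTF substrate in […] Tris pH 7.5, 20 mM MgCl2, 0.4 mM DTT, 0.1 mg/ml BSA; ATP-started, 40 min at 37° C.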

Another assay relates to leukemia cell lines. Kind of assay: Resazurin cell viability assay on leukemia cell lines (72 h growth inhibition, GI50). It is filed as cell-based. The settings on record: Homo sapiens, MV4-11 cells. Put shortly:
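MTT assay for solid tumour lines and resazurin assay for leukaemia lines, run by reported methods. GI50, the concentration giving 50% growth inhibition, was obtained by non-linear regression.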
Background: Resazurin is reduced to fluorescent resorufin, in cell work by metabolically active cells.

We go through 13 compounds from patent US11111245B2, “Derivatives of N-cycloalkyl/heterocycloalkyl-4-(imidazo[1,2-a]pyridine)pyrimidin-2-amine as therapeutic agents” (Aucentra Therapeutics Pty Ltd, priority 2017, dated 2021).

For orientation: Ki means a measure of affinity in units of concentration, obtained from inhibition or displacement. What is called GI50 is the concentration giving 50% growth inhibition. Higher therefore signals less potent growth inhibition.

Sequence of CDK9/T1 (P50750 whole entry): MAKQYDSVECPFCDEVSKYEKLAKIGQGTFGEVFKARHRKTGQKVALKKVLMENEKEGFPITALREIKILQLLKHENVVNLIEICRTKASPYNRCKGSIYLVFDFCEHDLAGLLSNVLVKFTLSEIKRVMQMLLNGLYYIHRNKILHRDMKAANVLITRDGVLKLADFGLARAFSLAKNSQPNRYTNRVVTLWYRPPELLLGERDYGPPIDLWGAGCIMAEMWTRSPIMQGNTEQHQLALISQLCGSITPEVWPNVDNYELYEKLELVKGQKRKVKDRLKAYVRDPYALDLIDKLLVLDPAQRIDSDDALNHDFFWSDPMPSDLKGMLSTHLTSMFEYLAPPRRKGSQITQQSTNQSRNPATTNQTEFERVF
Sequence of CDK9/T1 (O60563 whole entry partner): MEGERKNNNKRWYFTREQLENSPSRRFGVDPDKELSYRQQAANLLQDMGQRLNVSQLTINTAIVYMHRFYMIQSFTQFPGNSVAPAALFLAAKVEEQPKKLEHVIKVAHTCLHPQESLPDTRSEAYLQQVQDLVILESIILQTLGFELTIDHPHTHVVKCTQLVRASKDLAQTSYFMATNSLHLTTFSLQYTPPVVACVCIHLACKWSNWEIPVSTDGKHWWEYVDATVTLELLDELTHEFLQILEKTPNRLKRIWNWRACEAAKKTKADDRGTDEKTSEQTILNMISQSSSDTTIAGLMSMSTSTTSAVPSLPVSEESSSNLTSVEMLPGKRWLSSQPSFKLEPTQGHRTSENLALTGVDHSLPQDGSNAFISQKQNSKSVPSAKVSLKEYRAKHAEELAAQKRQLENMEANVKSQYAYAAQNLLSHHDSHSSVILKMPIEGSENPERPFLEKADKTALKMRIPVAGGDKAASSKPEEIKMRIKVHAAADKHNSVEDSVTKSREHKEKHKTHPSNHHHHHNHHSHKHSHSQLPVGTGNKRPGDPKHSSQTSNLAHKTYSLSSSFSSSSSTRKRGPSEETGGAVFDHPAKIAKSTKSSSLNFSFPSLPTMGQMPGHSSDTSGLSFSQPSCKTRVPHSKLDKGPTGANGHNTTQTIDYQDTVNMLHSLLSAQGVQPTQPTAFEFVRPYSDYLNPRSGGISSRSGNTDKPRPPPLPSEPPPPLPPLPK
Sequence of CDK4/D1 (P11802 whole entry): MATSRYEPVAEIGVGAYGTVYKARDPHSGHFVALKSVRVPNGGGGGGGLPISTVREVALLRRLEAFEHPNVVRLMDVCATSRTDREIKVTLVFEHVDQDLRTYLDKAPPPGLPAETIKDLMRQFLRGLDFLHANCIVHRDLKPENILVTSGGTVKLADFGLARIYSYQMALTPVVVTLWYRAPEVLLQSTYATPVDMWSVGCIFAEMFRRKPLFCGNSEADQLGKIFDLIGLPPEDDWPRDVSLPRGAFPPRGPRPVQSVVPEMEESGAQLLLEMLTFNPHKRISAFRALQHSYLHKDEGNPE
Sequence of CDK4/D1 (P24385 whole entry partner): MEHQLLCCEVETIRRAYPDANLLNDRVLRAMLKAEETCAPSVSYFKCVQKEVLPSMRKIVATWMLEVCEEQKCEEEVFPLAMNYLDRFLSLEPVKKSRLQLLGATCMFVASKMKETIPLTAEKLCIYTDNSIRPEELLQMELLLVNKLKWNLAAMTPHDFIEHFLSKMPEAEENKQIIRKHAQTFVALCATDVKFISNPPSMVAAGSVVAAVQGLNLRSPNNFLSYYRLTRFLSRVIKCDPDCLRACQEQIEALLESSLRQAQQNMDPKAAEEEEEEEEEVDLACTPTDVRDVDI
T1 sequence (P50613 whole entry): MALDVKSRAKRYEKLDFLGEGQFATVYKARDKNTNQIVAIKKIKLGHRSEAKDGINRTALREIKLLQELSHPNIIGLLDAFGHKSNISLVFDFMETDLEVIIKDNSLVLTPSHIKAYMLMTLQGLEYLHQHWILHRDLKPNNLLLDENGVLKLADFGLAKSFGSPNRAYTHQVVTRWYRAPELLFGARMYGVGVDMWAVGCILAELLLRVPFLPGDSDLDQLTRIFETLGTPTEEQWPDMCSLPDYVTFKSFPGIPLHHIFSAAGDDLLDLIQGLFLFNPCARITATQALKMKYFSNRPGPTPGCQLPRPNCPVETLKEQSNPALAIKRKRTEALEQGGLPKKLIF
T3 sequence (P06493 whole entry): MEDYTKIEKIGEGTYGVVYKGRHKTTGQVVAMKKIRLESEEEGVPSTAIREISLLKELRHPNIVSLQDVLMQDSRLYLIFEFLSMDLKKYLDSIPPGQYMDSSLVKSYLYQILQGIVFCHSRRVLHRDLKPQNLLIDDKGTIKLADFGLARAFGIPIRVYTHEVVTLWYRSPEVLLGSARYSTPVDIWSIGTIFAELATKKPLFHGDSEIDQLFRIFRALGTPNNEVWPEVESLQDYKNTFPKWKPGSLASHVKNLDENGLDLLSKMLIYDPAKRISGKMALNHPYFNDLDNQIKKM
Sequence of CDK6/D3 (Q00534 whole entry): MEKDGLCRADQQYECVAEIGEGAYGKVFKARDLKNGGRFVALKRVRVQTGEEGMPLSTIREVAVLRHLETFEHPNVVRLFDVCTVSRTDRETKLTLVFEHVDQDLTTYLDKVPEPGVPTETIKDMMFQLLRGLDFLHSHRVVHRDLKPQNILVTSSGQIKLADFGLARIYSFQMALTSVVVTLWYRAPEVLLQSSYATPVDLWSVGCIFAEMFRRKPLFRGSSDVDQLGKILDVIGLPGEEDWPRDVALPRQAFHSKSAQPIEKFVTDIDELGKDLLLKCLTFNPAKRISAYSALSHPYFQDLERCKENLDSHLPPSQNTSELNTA
Sequence of CDK6/D3 (P30281 whole entry partner): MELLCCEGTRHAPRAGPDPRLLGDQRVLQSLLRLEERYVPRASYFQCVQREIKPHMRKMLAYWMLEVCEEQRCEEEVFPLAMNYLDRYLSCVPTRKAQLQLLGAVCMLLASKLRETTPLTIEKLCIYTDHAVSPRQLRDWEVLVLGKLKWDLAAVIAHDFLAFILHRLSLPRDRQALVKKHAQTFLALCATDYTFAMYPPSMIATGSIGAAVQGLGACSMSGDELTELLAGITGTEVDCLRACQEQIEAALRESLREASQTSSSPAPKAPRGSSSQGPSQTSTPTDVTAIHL

On to `Cc1cnc(N[C@H]2CC[C@H](N)CC2)nc1-c1cnc2ccccn12` [Compound 8, (1r,4r)-N^1-(4-(Imidazo[1,2-a]pyridin-3-yl)-5-methylpyrimidin-2-yl)cyclohexane-1,4-diamine], for which the remaining activity at 10 µM on CDK6/D3 came to 34%; at CDK4/D1 it was 11%. The Ki on CDK9/T1 came out at 0.035 µM; at CDKs and other kinases [1] it was 0.38 µM; on CDKs and other kinases [2] it was 0.35 µM; on CDKs and other kinases [3] it was 3.81 µM. Moreover, the GI50 in the assay with leukemia cell lines stood at 0.066 ± 0.007 µM.
On to `Cc1cnc(N[C@H]2CC[C@H](N)CC2)nc1-c1cnc2ccc(C(F)(F)F)cn12` [Compound 9, (1r,4r)-N^1-(5-Methyl-4-(6-(trifluoromethyl)imidazo[1,2-a]pyridin-3-yl)pyrimidin-2-yl)cyclohexane-1,4-diamine], for which the remaining activity at 10 µM on CDK6/D3 was found to be 58%; at CDK4/D1 it was 45%. The Ki was 0.009 µM on CDK9/T1; 0.23 µM at CDKs and other kinases [1]; 0.08 µM at CDKs and other kinases [2]; 0.266 µM at CDKs and other kinases [3]. The same compound had a GI50 in the assay with leukemia cell lines of 0.008 ± 0.002 µM.
For the compound `COc1cnc(N[C@H]2CC[C@H](N)CC2)nc1-c1cnc2ccccn12` [Compound 11, (1r,4r)-N^1-(4-(Imidazo[1,2-a]pyridin-3-yl)-5-methoxypyrimidin-2-yl)cyclohexane-1,4-diamine], the remaining activity at 10 µM is 27% at CDK6/D3; 26% at CDKs and other kinases [1]; 63% on CDKs and other kinases [2]; 75% on CDKs and other kinases [3]; 40% at CDK4/D1. The Ki on CDK9/T1 came out at 0.291 µM. In the assay on leukemia cell lines, this compound displayed a GI50 of 0.009 ± 0.001 µM.
Regarding `N[C@H]1CC[C@H](Nc2ncc(Cl)c(-c3cnc4ccc(Br)cn34)n2)CC1` [Compound 12, (1r,4r)-N^1-(4-(6-Bromoimidazo[1,2-a]pyridin-3-yl)-5-chloropyrimidin-2-yl)cyclohexane-1,4-diamine], the remaining activity at 10 µM came to 41% at CDK6/D3 and 4% at CDK4/D1. Besides, the Ki was 0.008 µM on CDK9/T1; 0.032 µM at CDKs and other kinases [1]; 0.013 µM on CDKs and other kinases [2]; 0.121 µM at CDKs and other kinases [3]. This compound gave a GI50 with leukemia cell lines of 0.006 ± 0.001 µM.
In the case of `N[C@H]1CC[C@H](Nc2ncc(Cl)c(-c3cnc4ccc(C(F)(F)F)cn34)n2)CC1` [Compound 13, (1r,4r)-N^1-(5-Chloro-4-(6-(trifluoromethyl)imidazo[1,2-a]pyridin-3-yl)pyrimidin-2-yl)cyclohexane-1,4-diamine], the remaining activity at 10 µM at CDK6/D3 is 59%; at CDK4/D1, 0%. The Ki came out at 0.024 µM at CDK9/T1; 0.052 µM on CDKs and other kinases [1]; 0.063 µM at CDKs and other kinases [2]; 0.329 µM at CDKs and other kinases [3]. Besides, in the assay on leukemia cell lines, the GI50 was 0.022 ± 0.002 µM.
With `N[C@H]1CC[C@H](Nc2ncc(Cl)c(-c3cnc4c(Br)cc(C(F)(F)F)cn34)n2)CC1` [Compound 14, (1r,4r)-N^1-(4-(8-Bromo-6-(trifluoromethyl)imidazo[1,2-a]pyridin-3-yl)-5-chloropyrimidin-2-yl)cyclohexane-1,4-diamine], the results for the remaining activity at 10 µM on CDK6/D3 and at CDK4/D1 were 17% and 3%, respectively. The Ki at CDK9/T1 was 0.007 µM; at CDKs and other kinases [1], 0.04 µM; at CDKs and other kinases [2], 0.115 µM; on CDKs and other kinases [3] it was 0.755 µM. The same compound yielded a GI50 in the assay on leukemia cell lines of 0.368 ± 0.129 µM.
With `COC(=O)CN[C@H]1CC[C@H](Nc2ncc(F)c(-c3cnc4ccccn34)n2)CC1` [Compound 15, Methyl ((1r,4r)-4-((5-fluoro-4-(imidazo[1,2-a]pyridin-3-yl)pyrimidin-2-yl)amino)cyclohexyl)glycinate], the remaining activity at 10 µM is 13% at CDK6/D3 and 0% on CDK4/D1. Also, the Ki turned out to be 0.014 µM on CDK9/T1; 0.15 µM at CDKs and other kinases [1]; 0.027 µM at CDKs and other kinases [2]; 0.07 µM at CDKs and other kinases [3]. In addition, in the assay with leukemia cell lines, the GI50 came to 0.05 ± 0.009 µM.
Take `CS(=O)(=O)N[C@H]1CC[C@H](Nc2ncc(Cl)c(-c3cnc4ccc(Br)cn34)n2)CC1` [Compound 17, N-((1r,4r)-4-((4-(6-Bromoimidazo[1,2-a]pyridin-3-yl)-5-chloropyrimidin-2-yl)amino)cyclohexyl) methanesulfonamide]: the remaining activity at 10 µM at CDK6/D3 amounted to 26%; on CDK4/D1 it was 1%. Moreover, the Ki at CDK9/T1 turned out to be 0.062 µM; at CDKs and other kinases [1] it was 0.001 µM; on CDKs and other kinases [2], 0.0004 µM; at CDKs and other kinases [3], 0.004 µM. In the assay with leukemia cell lines, this compound gave a GI50 of under 0.001 µM.
As to `CS(=O)(=O)N[C@H]1CC[C@H](Nc2ncc(Cl)c(-c3cnc4c(Br)cc(C(F)(F)F)cn34)n2)CC1` [Compound 18, N-((1r,4r)-4-((4-(8-Bromo-6-(trifluoromethyl)imidazo [1,2-a]pyridin-3-yl)-5-chloropyrimidin-2-yl)amino)cyclohexyl)methanesulfonamide], the results for the remaining activity at 10 µM at CDK6/D3 and at CDK4/D1 were 41% and 9%, respectively. Moreover, the Ki was determined as 0.148 µM at CDK9/T1; 0.001 µM at CDKs and other kinases [1]; 0.007 µM on CDKs and other kinases [2]; 0.028 µM on CDKs and other kinases [3]. In the assay on leukemia cell lines, this compound registered a GI50 of 6.11 ± 1.14 µM.
As for `Fc1cnc(NC2CCN(CC3CC3)CC2)nc1-c1cnc2ccccn12` [Compound 22, N-(1-(Cyclopropylmethyl)piperidin-4-yl)-5-fluoro-4-(imidazo[1,2-a]pyridin-3-yl)pyrimidin-2-amine], the remaining activity at 10 µM on CDK6/D3 stood at 42%; at CDK4/D1, 2%. The Ki on CDK9/T1 was determined as 0.095 µM; at CDKs and other kinases [1], 0.437 µM; at CDKs and other kinases [2], 1.12 µM; at CDKs and other kinases [3], 1.06 µM. The same compound yielded a GI50 with leukemia cell lines of 0.041 ± 0.012 µM.
With `COC(=O)CN1CCC(Nc2ncc(F)c(-c3cnc4ccccn34)n2)CC1` [Compound 23, Methyl 2-(4-((5-fluoro-4-(imidazo[1,2-a]pyridin-3-yl)pyrimidin-2-yl)amino)piperidin-1-yl)acetate], the remaining activity at 10 µM on CDK6/D3 worked out at 39%; at CDK4/D1, 0%. Further, the Ki at CDK9/T1 came to 0.063 µM; at CDKs and other kinases [1], 0.885 µM; at CDKs and other kinases [2] it was 0.155 µM; at CDKs and other kinases [3], 0.258 µM. The GI50 in the assay on leukemia cell lines came to 0.28 ± 0.049 µM.
Regarding `CS(=O)(=O)N1CCC(Nc2ncc(F)c(-c3cnc4ccccn34)n2)CC1` [Compound 24, 5-Fluoro-4-(imidazo[1,2-a]pyridin-3-yl)-N-(1-(methylsulfonyl)piperidin-4-yl)pyrimidin-2-amine], the remaining activity at 10 µM at CDK6/D3 is 18%; at CDKs and other kinases [2], -1%; on CDKs and other kinases [3], -1%; at CDK4/D1, -16%. The Ki amounted to 0.141 µM on CDK9/T1; 0.281 µM at CDKs and other kinases [1]. Further, it took 0.506 ± 0.104 µM to inhibit growth in the assay on leukemia cell lines by half (GI50).
Take `N[C@H]1CC[C@H](Nc2ncc(F)c(-c3cnc4ccc(Nc5cccc(F)c5)cn34)n2)CC1` [Compound 25, (1r,4r)-N^1-(5-Fluoro-4-(6-((3-fluorophenyl)amino)imidazo[1,2-a]pyridin-3-yl)pyrimidin-2-yl) cyclohexane-1,4-diamine]: the remaining activity at 10 µM was determined as 4% at CDK6/D3; 1% at CDKs and other kinases [1]; 2% on CDKs and other kinases [2]; 3% at CDKs and other kinases [3]; 4% on CDK4/D1. At CDK9/T1, the Ki is 0.003 µM. The compound also returned a GI50 in the assay with leukemia cell lines of under 0.001 µM.
